Results published in US20210221784A1, “COMPOUNDS AND COMPOSITIONS FOR THE TREATMENT OF PAIN” (Université de Strasbourg, priority 2018, published 2021).

Legend:
[1] = target: T1, hNPFF1R (Homo sapiens, UniProt Q9GZQ6); experiment: Glo Sensor cAMP assay in HEK-293 expressing hNPFF1R; format: cell-based; conditions: HEK-293 cells expressing hNPFF1R; FIG. 7
T1 construct: expressed in transfected cells
Experimental: The functional characterization of the selected compounds was performed by Glo Sensor cAMP kinetic assay, a validated approach for measuring Gαi/s activation by GPCRs (DiRaddo et al., 2014; Gilissen et al., 2015). HEK-Glo cells expressing either NPFF1 or NPFF2 receptors were suspended (10^6 cells per mF) in physiological Hepes buffer (10 mM HEPES, 0.4 mM NaH2PO4, 137.5 mM NaCl, 1.25 mM MgCl2, 1.25 mM CaCl2, 6 mM KCl, 10 mM glucose and 1 mg/mF bovine serum albumin, pH 7.4) supplemented with 1 mM D-Fuciferine. After equilibration for 2 h at 25° C., luminescence levels were recorded in real time in 96-well plates using a Flexstation^R 3 (Molecular Devices, Sunnyvale Calif., USA). Non-specific effect of the different compounds was evaluated in HEK-Glo cells without any recombinant human RF-amide receptors. To test the agonist activity on NPFF1R and NPFF2R, compounds were injected 15 minutes before addition of forskolin (0.5 μM) and readings were pursued for 90 minutes. To evaluate their antagonist properties, compounds were pre-incubated with cells for 15 minutes before prototypical agonists for NPFF1R (RFRP-3) and NPFF2R (NPFF) receptors. According to their preferential coupling to Gi/o proteins, the stimulation of NPFF1R and NPFF2R by agonists was monitored as a dose-dependent reduction in steady-state luminescence levels, reflecting the inhibition of forskolin-induced cAMP accumulation. Experiments were performed at 25° C. in the presence of 0.5 mM IBMX to prevent the degradation of cAMP by phosphodiesterases.

[2] = target: T2, hNPFFR2 (Homo sapiens, UniProt Q9Y5X5); experiment: Radioligand binding competition, membranes from CHO cells expressing hNPFFR2; conditions: 0.015 nM [D-Tyr1[125I], N-MePhe3]-NPFF, 1 hr at 25° C., read-out: NPFF2-R Ki
T2 construct: expressed in transfected cells; membranes
Experimental: Competition experiments with membranes from CHO cells stably expressing hNPFFR1 and hNPFFR2 were performed essentially as described in Elhabazi, K., et al. Neuropharmacology, 2013. 75C, 164-171., Briefly, hNPFFR1 or hNPFFR2 membranes (5 to 10 μg of proteins) were incubated (1 hr at 25° C.; 0.25 mL total volume) with 0.015 nM [D-Tyr1[125I], N-MePhe3]-NPFF (Hartmann Analytic GmbH) in 50 mM HEPES (pH 7.4), 1 mM CaCl2, 1 mM MgCl2 and 0.1% bovine serum albumin. Non-specific binding was determined in the presence of 10 μM RFRP-3. Incubation was terminated by rapid filtration through a 96-well GF/B unifilter apparatus (Perkin Elmer Life and Analytical Sciences, Courtaboeuf, France). Unifilters were washed five times with binding buffer, then dried for 1 h at 65° C. After addition of 40 μL scintillation cocktail (Microscint-O, Perkin Elmer) per well, bound radioactivity was determined on a TopCount scintillation counter (Perkin Elmer).

[3] = system: C57BF6/N male mice; experiment: Fentanyl-induced hyperalgesia, tail immersion test; format: in vivo; conditions: FIG. 6B
[4] = target: T3, hNPFFR1 (Homo sapiens, UniProt Q9GZQ6); experiment: Radioligand binding competition, membranes from CHO cells expressing hNPFFR1; conditions: 0.015 nM [D-Tyr1[125I], N-MePhe3]-NPFF, 1 hr at 25° C., read-out: NPFF1-R Ki
T3 construct: expressed in transfected cells; membranes
In short: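 CHO membranes (5–10 μg protein) stably expressing hNPFFR1 or hNPFFR2 incubated 1 h at 25 °C with 0.015 nM [D-Tyr1[125I], N-MePhe3]-NPFF in HEPES pH 7.4 with Ca2+, Mg2+, 0.1% BSA. Non-specific binding defined with 10 μM RFRP-3; bound radioactivity counted after GF/B filtration.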

[5] = target: T4, human NPFFR1 (hNPFFR1) receptor (Homo sapiens, UniProt Q9GZQ6); experiment: Human NPFFR1 evaluation using BRET biosensors in HEK-293 T cells; format: cell-based; conditions: hNPFFR1 in HEK-293 T cells, stimulated by EC80 RFRP-3, read-out: IC50 of antagonist activity
T4 construct: expressed in transfected cells; host or cells: HEK-293 T cells, transient co-transfection
In short: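 HEK-293 T cells transiently co-expressing hNPFFR1, GαoB and a Gi-effector BRET biosensor pair; agonist read after 10 min compound alone, then antagonism after EC80 RFRP-3 for 10 min. IC50 from 20-point curves over 6 logs, duplicates in two independent experiments.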

[6] = system: C57BF6/N male mice; experiment: Incisional pain model, Von Frey test; format: in vivo; conditions: morphine 2.5 mg/kg sc. alone or 1j 5 mg/kg po alone; FIG. 3B
[7] = system: C57BF6/N male mice; experiment: Neuropathic pain model (chronic constriction injury), Von Frey test; format: in vivo; conditions: morphine 3 mg/kg sc. alone or 1j 5 mg/kg p.o. alone; FIG. 4B
[8] = system: C57BF6/N male mice; experiment: Morphine-induced hyperalgesia and tolerance, tail immersion test; format: in vivo
[9] = system: NPFF receptor; conditions: Simonin et al., PNAS (2006); cited from earlier work
[10] = system: rat; conditions: repeated administration of opiate analgesics; cited from earlier work

T2 sequence (Q9Y5X5 whole entry): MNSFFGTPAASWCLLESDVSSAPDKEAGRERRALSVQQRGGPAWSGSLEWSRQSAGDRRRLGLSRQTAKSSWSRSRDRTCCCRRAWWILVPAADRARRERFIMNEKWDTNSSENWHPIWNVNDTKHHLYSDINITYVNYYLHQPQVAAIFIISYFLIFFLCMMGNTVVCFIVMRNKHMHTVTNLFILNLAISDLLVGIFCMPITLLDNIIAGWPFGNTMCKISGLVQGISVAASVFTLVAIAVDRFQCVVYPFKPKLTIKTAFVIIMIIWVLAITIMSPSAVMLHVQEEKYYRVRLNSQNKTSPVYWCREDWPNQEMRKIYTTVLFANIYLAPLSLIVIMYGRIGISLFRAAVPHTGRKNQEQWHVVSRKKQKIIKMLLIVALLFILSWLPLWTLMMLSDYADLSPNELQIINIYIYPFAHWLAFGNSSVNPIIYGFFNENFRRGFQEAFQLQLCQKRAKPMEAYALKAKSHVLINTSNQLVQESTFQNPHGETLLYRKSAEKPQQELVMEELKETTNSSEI
T3 sequence (Q9GZQ6 whole entry): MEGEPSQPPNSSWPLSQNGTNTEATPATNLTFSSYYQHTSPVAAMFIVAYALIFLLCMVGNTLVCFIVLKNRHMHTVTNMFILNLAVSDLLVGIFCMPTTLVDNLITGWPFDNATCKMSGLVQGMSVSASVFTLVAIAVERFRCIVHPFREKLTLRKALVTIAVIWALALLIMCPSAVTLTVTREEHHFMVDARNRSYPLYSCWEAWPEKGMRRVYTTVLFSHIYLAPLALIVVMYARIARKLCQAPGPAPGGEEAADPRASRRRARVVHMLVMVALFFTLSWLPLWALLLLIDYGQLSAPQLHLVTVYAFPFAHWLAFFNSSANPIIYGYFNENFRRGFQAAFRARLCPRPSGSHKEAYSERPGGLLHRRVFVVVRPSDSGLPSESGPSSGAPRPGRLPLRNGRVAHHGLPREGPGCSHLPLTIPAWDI
T4 sequence (Q9GZQ6 whole entry): as above
T1 sequence (Q9GZQ6 whole entry): as above

Cc1ccccc1-c1ccc(N)nc1N [Compound 1c, 3-(o-tolyl)pyridine-2,6-diamine]
antagonist activity: effect on dose response curve of NPVF (RFRP-3), forskolin-stimulated cAMP [1]: antagonist activity similar as compound 1j
Ki [2]: 30 µM
fentanyl hyperalgesia (hyperalgesia index d1 to d4) ([3]; 0.2 mg/kg sc. 20 min before fentanyl 4×60 μg/kg sc.): prevented fentanyl hyperalgesia
fentanyl hyperalgesia (hyperalgesia index d1 to d4) ([3]; 1 mg/kg sc. 20 min before fentanyl 4×60 μg/kg sc.): prevented fentanyl hyperalgesia
Ki [4]: 23 nM
IC50 [5]: 100 to 500 nM

CN1CC[C@]23c4c5ccc(O)c4O[C@H]2[C@@H](O)C=C[C@H]3[C@H]1C5.Cl [morphine, Morphine hydrochloride, reference compound]
mechanical allodynia after paw incision (allodynia index d1-d6), drug alone [6]: failed to prevent significantly the mechanical allodynia
mechanical allodynia after CCI (allodynia index d11-d21), drug alone [7]: slightly but not significantly prevented the mechanical allodynia
Hyperalgesia index (HI) d1 to d7 ([8]; daily morphine 10 mg/kg s.c., 1j 5 mg/kg oral or vehicle before morphine, FIG. 2B): −16.2±2
peak of analgesia at day 8 ([8]; morphine 5 mg/kg s.c. alone or combined with 1j 5 mg/kg p.o., after chronic morphine, FIG. 2C): 9±0.8
peak of analgesia at day 0 ([8]; morphine 5 mg/kg s.c. alone or combined with 1j 5 mg/kg p.o., FIG. 2C): 17±0.8

N^α-adamantan-1-yl-L-Arg-L-Phe-NH2 acetate [RF9]
NPFF receptor antagonist potency [9]: first nanomolar NPFF receptor antagonist
antihyperalgesic activity in vivo [10]: reversing hyperalgesia induced by the repeated administration of opiate analgesics
